Results reported in patent US20210130346A1, “Bromodomain Inhibitors” (AbbVie Inc., priority 2017, published 2021).

The molecules below were run against BRD4 (BDI_K57-E168) (Homo sapiens, UniProt O60885) (assay: TR-FRET bromodomain binding assay, BRD4 first bromodomain (BDI)). Settings: mean Ki; 12 nM His tagged BRD4 (BDI_K57-E168), 100 nM Alexa647 probe; Ki calculated from IC50, probe Kd and probe concentration.
Method: A time-resolved fluorescence resonance energy transfer (TR-FRET) assay was used to determine the affinities of compounds of the Examples listed in Table 1 for each bromodomain of BRD4. […] An Alexa647-labeled BET-inhibitor was used as the fluorescent probe in the assay.
Compound dilution series were prepared in DMSO via an approximately 3-fold serial dilution. Compound dilutions were added directly into white, low-volume assay plates (Perkin Elmer Proxiplate 384 Plus# 6008280) using a Labcyte Echo in conjunction with Labcyte Access and Thermo Multidrop CombinL robotics. Compounds were then suspended in eight microliters (μL) of assay buffer (20 mM Sodium Phosphate, pH 6.0, 50 mM NaCl, 1 mM Ethylenediaminetetraacetic acid disodium salt dihydrate, 0.01% Triton X-100, 1 mM DL-Dithiothreitol) containing His-tagged bromodomain, Europium-conjugated anti-His antibody (Invitrogen PV5596) and Alexa-647-conjugated probe.
After a one-hour equilibration at room temperature, TR-FRET ratios were determined using an Envision multilabel plate reader (Ex 340, Em 495/520).
TR-FRET data were normalized to the means of 24 no-compound controls (“high”) and 8 controls containing 1 μM un-labeled probe (“low”). Percent inhibition was plotted as a function of compound concentration and the data were fit with the 4 parameter logistic equation to obtain IC50s. Inhibition constants (Ki) were calculated from the IC50s, probe Kd and probe concentration.

| Ki | SMILES |
| --- | --- |
| 6.08 µM | CCNC(=O)c1cc2c([C@@H]3C[C@@]34C(=O)N(C)c3ccccc34)cn(C)c(=O)c2[nH]1 (racemic) [Example 1, rac-N-ethyl-6-methyl-4-[(1R,2S)-1′-methyl-2′-oxo-1′,2′-dihydrospiro[cyclopropane-1,3′-indol]-2-yl]-7-oxo-6,7-dihydro-1H-pyrrolo[2,3-c]pyridine-2-carboxamide] |
| 5.42 µM | CN1C(=O)[C@@]2(C[C@H]2c2cn(C)c(=O)c3[nH]c(C(=O)NC4CC4)cc23)c2ccccc21 (racemic) [Example 2, rac-N-cyclopropyl-6-methyl-4-[(1R,2S)-1′-methyl-2′-oxo-1′,2′-dihydrospiro[cyclopropane-1,3′-indol]-2-yl]-7-oxo-6,7-dihydro-1H-pyrrolo[2,3-c]pyridine-2-carboxamide] |
| 5.45 µM | CN1C(=O)[C@@]2(C[C@H]2c2cn(C)c(=O)c3[nH]c(C(=O)NC4CC(F)(F)C4)cc23)c2ccccc21 (racemic) [Example 5, rac-N-(3,3-difluorocyclobutyl)-6-methyl-4-[(1R,2S)-1′-methyl-2′-oxo-1′,2′-dihydrospiro[cyclopropane-1,3′-indol]-2-yl]-7-oxo-6,7-dihydro-1H-pyrrolo[2,3-c]pyridine-2-carboxamide] |
| > 13 µM | CN1C(=O)[C@@]2(C[C@H]2c2cn(C)c(=O)c3[nH]c(C(=O)Nc4ccccc4)cc23)c2ccccc21 (racemic) [Example 8, rac-6-methyl-4-[(1R,2S)-1′-methyl-2′-oxo-1′,2′-dihydrospiro[cyclopropane-1,3′-indol]-2-yl]-7-oxo-N-phenyl-6,7-dihydro-1H-pyrrolo[2,3-c]pyridine-2-carboxamide] |
| 4.68 µM | COc1ccc(NC(=O)c2cc3c([C@@H]4C[C@@]45C(=O)N(C)c4ccccc45)cn(C)c(=O)c3[nH]2)cc1 (racemic) [Example 9, rac-N-(4-methoxyphenyl)-6-methyl-4-[(1R,2S)-1′-methyl-2′-oxo-1′,2′-dihydrospiro[cyclopropane-1,3′-indol]-2-yl]-7-oxo-6,7-dihydro-1H-pyrrolo[2,3-c]pyridine-2-carboxamide] |
| 2.05 µM | CN1C(=O)[C@@]2(C[C@H]2c2cn(C)c(=O)c3[nH]c(C(=O)Nc4cccc(CO)c4)cc23)c2ccccc21 (racemic) [Example 10, rac-N-[3-(hydroxymethyl)phenyl]-6-methyl-4-[(1R,2S)-1′-methyl-2′-oxo-1′,2′-dihydrospiro[cyclopropane-1,3′-indol]-2-yl]-7-oxo-6,7-dihydro-1H-pyrrolo[2,3-c]pyridine-2-carboxamide] |
| 7.38 µM | CN1C(=O)[C@@]2(C[C@H]2c2cn(C)c(=O)c3[nH]c(C(=O)NC4CC4)cc23)c2ccc(F)cc21 (racemic) [Example 11, rac-N-cyclopropyl-4-[(1R,2S)-6′-fluoro-1′-methyl-2′-oxo-1′,2′-dihydrospiro[cyclopropane-1,3′-indol]-2-yl]-6-methyl-7-oxo-6,7-dihydro-1H-pyrrolo[2,3-c]pyridine-2-carboxamide] |
| 4.53 µM | CN1C(=O)[C@@]2(C[C@H]2c2cn(C)c(=O)c3[nH]c(C(=O)NC4CC4)cc23)c2ccc(Cl)cc21 (racemic) [Example 12, rac-4-[(1R,2S)-6′-chloro-1′-methyl-2′-oxo-1′,2′-dihydrospiro[cyclopropane-1,3′-indol]-2-yl]-N-cyclopropyl-6-methyl-7-oxo-6,7-dihydro-1H-pyrrolo[2,3-c]pyridine-2-carboxamide] |
| 2.95 µM | Cc1ccc2c(c1)N(C)C(=O)[C@@]21C[C@H]1c1cn(C)c(=O)c2[nH]c(C(=O)NC3CC3)cc12 (racemic) [Example 13, rac-N-cyclopropyl-4-[(1R,2S)-1′,6′-dimethyl-2′-oxo-1′,2′-dihydrospiro[cyclopropane-1,3′-indol]-2-yl]-6-methyl-7-oxo-6,7-dihydro-1H-pyrrolo[2,3-c]pyridine-2-carboxamide] |
| 4.8 µM | COc1ccc2c(c1)N(C)C(=O)[C@@]21C[C@H]1c1cn(C)c(=O)c2[nH]c(C(=O)NC3CC3)cc12 (racemic) [Example 14, rac-N-cyclopropyl-4-[(1R,2S)-6′-methoxy-1′-methyl-2′-oxo-1′,2′-dihydrospiro[cyclopropane-1,3′-indol]-2-yl]-6-methyl-7-oxo-6,7-dihydro-1H-pyrrolo[2,3-c]pyridine-2-carboxamide] |
| 3.63 µM | CN1C(=O)[C@@]2(C[C@H]2c2cn(C)c(=O)c3[nH]c(C(=O)NC4CC4)cc23)c2ccc(OC(F)(F)F)cc21 (racemic) [Example 15, rac-N-cyclopropyl-6-methyl-4-[(1R,2S)-1′-methyl-2′-oxo-6′-(trifluoromethoxy)-1′,2′-dihydrospiro[cyclopropane-1,3′-indol]-2-yl]-7-oxo-6,7-dihydro-1H-pyrrolo[2,3-c]pyridine-2-carboxamide] |
| 9.95 µM | CN1C(=O)[C@@]2(C[C@H]2c2cn(C)c(=O)c3[nH]c(C(=O)NC4CC4)cc23)c2cc(F)ccc21 (racemic) [Example 16, rac-N-cyclopropyl-4-[(1R,2S)-5′-fluoro-1′-methyl-2′-oxo-1′,2′-dihydrospiro[cyclopropane-1,3′-indol]-2-yl]-6-methyl-7-oxo-6,7-dihydro-1H-pyrrolo[2,3-c]pyridine-2-carboxamide] |
| > 13 µM | Cn1cc([C@@H]2C[C@@]23C(=O)Nc2ccccc23)c2cc(C(=O)NC3CC3)[nH]c2c1=O (racemic) [Example 19, rac-N-cyclopropyl-6-methyl-7-oxo-4-[(1R,2S)-2′-oxo-1′,2′-dihydrospiro[cyclopropane-1,3′-indol]-2-yl]-6,7-dihydro-1H-pyrrolo[2,3-c]pyridine-2-carboxamide] |
| 4 µM | CCN1C(=O)[C@@]2(C[C@H]2c2cn(C)c(=O)c3[nH]c(C(=O)NC4CC4)cc23)c2ccccc21 (racemic) [Example 22, rac-N-cyclopropyl-4-[(1R,2S)-1′-ethyl-2′-oxo-1′,2′-dihydrospiro[cyclopropane-1,3′-indol]-2-yl]-6-methyl-7-oxo-6,7-dihydro-1H-pyrrolo[2,3-c]pyridine-2-carboxamide] |
| > 13 µM | Cn1cc(C2CC23C(=O)N(CC(F)(F)F)c2ccccc23)c2cc(C(=O)NC3CC3)[nH]c2c1=O (racemic) [Example 23, rac-N-cyclopropyl-6-methyl-7-oxo-4-[(1R,2S)-2′-oxo-′-(2,2,2-trifluoroethyl)-1′,2′-dihydrospiro[cyclopropane-1,3′-indol]-2-yl]-6,7-dihydro-1H-pyrrolo[2,3-c]pyridine-2-carboxamide] |
| 9.22 µM | Cn1cc([C@@H]2C[C@@]23C(=O)N(C2CC2)c2ccccc23)c2cc(C(=O)NC3CC3)[nH]c2c1=O (racemic) [Example 26, rac-N-cyclopropyl-4-[(1R,2S)-1′-cyclopropyl-2′-oxo-1′,2′-dihydrospiro[cyclopropane-1,3′-indol]-2-yl]-6-methyl-7-oxo-6,7-dihydro-1H-pyrrolo[2,3-c]pyridine-2-carboxamide] |
| > 13 µM | COCCN1C(=O)[C@@]2(C[C@H]2c2cn(C)c(=O)c3[nH]c(C(=O)NC4CC4)cc23)c2ccccc21 (racemic) [Example 27, rac-N-cyclopropyl-4-[(1R,2S)-1′-(2-methoxyethyl)-2′-oxo-1′,2′-dihydrospiro[cyclopropane-1,3′-indol]-2-yl]-6-methyl-7-oxo-6,7-dihydro-1H-pyrrolo[2,3-c]pyridine-2-carboxamide] |
